Data: the Kinase Knowledgebase extract (Sharma et al. 2016)
pIC50: −log10 of the molar value.

Tests used:
[1] = biological target: EGFR (human) (UniProt P00533)
[2] = biological target: EGFR (human) (UniProt P00533); settings: a431

Sequence of EGFR (human) (P00533 whole entry, looked up): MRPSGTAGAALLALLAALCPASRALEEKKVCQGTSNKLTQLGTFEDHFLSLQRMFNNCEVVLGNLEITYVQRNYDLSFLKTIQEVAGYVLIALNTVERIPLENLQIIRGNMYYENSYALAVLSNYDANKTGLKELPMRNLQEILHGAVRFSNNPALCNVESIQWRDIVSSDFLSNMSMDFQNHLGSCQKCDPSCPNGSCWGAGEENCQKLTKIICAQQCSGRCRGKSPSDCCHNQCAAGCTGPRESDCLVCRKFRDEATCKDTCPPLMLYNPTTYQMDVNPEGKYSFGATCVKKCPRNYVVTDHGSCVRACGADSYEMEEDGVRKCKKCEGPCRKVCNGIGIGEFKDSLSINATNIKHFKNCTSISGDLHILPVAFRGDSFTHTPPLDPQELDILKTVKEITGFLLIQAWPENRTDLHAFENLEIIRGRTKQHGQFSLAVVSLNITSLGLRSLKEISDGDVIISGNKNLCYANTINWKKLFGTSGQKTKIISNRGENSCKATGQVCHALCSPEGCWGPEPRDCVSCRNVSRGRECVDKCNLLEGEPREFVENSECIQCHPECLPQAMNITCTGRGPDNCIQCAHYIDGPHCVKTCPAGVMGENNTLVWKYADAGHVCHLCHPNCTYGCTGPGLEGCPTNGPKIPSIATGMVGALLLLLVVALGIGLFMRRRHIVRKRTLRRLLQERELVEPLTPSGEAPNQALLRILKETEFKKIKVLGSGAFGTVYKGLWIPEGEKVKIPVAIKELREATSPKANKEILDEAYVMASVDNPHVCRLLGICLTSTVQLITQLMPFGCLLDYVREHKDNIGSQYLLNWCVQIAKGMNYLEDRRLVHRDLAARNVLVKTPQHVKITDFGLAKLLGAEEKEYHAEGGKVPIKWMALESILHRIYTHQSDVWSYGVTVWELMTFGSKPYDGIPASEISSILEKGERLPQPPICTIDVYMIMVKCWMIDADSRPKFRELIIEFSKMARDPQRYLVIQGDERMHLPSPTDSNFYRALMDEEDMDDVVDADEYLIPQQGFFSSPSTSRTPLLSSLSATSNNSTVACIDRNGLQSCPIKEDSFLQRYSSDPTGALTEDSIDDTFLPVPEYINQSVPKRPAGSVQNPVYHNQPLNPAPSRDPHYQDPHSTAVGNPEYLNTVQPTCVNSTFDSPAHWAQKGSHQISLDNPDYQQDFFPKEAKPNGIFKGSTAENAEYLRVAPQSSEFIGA

Structure (SMILES) | pIC50 [1] | pIC50 [2]
O=C(C1CC1)N1CCN(CC(O)Cn2ccc(-c3ccc4ncnc(Nc5ccc(OCc6cccc(F)c6)c(Cl)c5)c4c3)c2)CC1 (stereo unspecified) | 6.71 | 5.96
O=C(Cn1ccc(-c2ccc3ncnc(Nc4ccc(OCc5cccc(F)c5)c(Cl)c4)c3c2)c1)N1CCC(N2CCCCC2)CC1 | 7.10 | 6.53
OC(CNC1CC1)Cn1ccc(-c2ccc3ncnc(Nc4ccc5c(cnn5Cc5cccc(F)c5)c4)c3c2)c1 (stereo unspecified) | 7.92 | 6.45
O=C(NCCN1CCCC1)c1cn(-c2ccc3ncnc(Nc4ccc(OCc5cccc(F)c5)c(Cl)c4)c3c2)cc1CCO | 8.05 | 6.80
O=C(c1cn(-c2ccc3ncnc(Nc4ccc(OCc5cccc(F)c5)c(Cl)c4)c3c2)cc1CCO)N1CCCCC1 | 8.52 | 7.30
CCN(CC)CCn1ccc(-c2ccc3ncnc(Nc4ccc5c(cnn5Cc5cccc(F)c5)c4)c3c2)c1 | 8.22 | 5.99
CS(=O)(=O)CCNCc1cn(-c2ccc3ncnc(Nc4ccc(OCc5cccc(F)c5)c(Cl)c4)c3c2)cc1C(F)(F)F | 7.80 | 6.08
CN1CCN(C(=O)c2cn(-c3ccc4ncnc(Nc5ccc(OCc6cccc(F)c6)c(Cl)c5)c4c3)cc2CCO)CC1 | 8.30 | 5.84
CCN(CC)CC(O)Cn1ccc(-c2ccc3ncnc(Nc4ccc(OCc5cccc(F)c5)c(Cl)c4)c3c2)c1 (stereo unspecified) | 7.64 | 6.46
CN1CCN(C(=O)c2cn(-c3ccc4ncnc(Nc5ccc(OCc6ccccn6)c(Cl)c5)c4c3)cc2CCO)CC1 | 7.22 | 6.89
OC(CN1CCCCC1)Cn1ccc(-c2ccc3ncnc(Nc4ccc(OCc5cccc(F)c5)c(Cl)c4)c3c2)c1 (stereo unspecified) | 7.68 | 6.35
CCN(CC)CCN1CCOC(Cn2ccc(-c3ccc4ncnc(Nc5ccc6c(cnn6Cc6cccc(F)c6)c5)c4c3)c2)C1 (stereo unspecified) | 6.61 | 6.30
OCCc1cn(-c2ccc3ncnc(Nc4ccc(OCc5ccccn5)c(Cl)c4)c3c2)cc1CN1CCCCC1 | 7.49 | 8.52
OC(CN1CCN(C2CC2)CC1)Cn1ccc(-c2ccc3ncnc(Nc4ccc(OCc5cccc(F)c5)c(Cl)c4)c3c2)c1 (stereo unspecified) | 6.93 | 6.28
OCCc1cn(-c2ccc3ncnc(Nc4ccc(OCc5cccc(F)c5)c(Cl)c4)c3c2)cc1CN1CCOCC1 | 8.40 | 6.68
OC(Cn1ccc(-c2ccc3ncnc(Nc4ccc5c(cnn5Cc5cccc(F)c5)c4)c3c2)c1)Cn1ccnn1 (stereo unspecified) | 7.24 | 6.40
CNCCn1ccc(-c2ccc3ncnc(Nc4ccc(OCc5cccc(F)c5)c(Cl)c4)c3c2)c1 | 7.14 | 5.47

Structure (SMILES) | pIC50 [1] | pIC50 [2]
Fc1cccc(Cn2ncc3cc(Nc4ncnc5ccc(-c6ccn(CCN7CCOCC7)c6)cc45)ccc32)c1 | 8.22 | 7.00
CS(=O)(=O)CCNCC(O)Cn1ccc(-c2ccc3ncnc(Nc4ccc5c(cnn5Cc5cccc(F)c5)c4)c3c2)c1 (stereo unspecified) | 9.00 | 6.37
Clc1cc(Nc2ncnc3ccc(-n4cccc4)cc23)ccc1OCc1ccccn1 | 8.22 | 8.00
COCCNCc1cn(-c2ccc3ncnc(Nc4ccc(OCc5cccc(F)c5)c(Cl)c4)c3c2)cc1C(F)(F)F | 7.31 | 6.32
O=C(Cn1ccc(-c2ccc3ncnc(Nc4ccc(OCc5cccc(F)c5)c(Cl)c4)c3c2)c1)N[C@H]1CC[C@H](O)CC1 | 6.58 | 6.49
CCN(CC)C[C@@H](O)Cn1ccc(-c2ccc3ncnc(Nc4ccc5c(cnn5Cc5cccc(F)c5)c4)c3c2)c1 | 7.15 | 6.41
OC(CN1CCOCC1)Cn1ccc(-c2ccc3ncnc(Nc4ccc5c(cnn5Cc5cccc(F)c5)c4)c3c2)c1 (stereo unspecified) | 8.30 | 6.77
CCN(CC)CCNC(=O)c1cn(-c2ccc3ncnc(Nc4ccc(OCc5cccc(F)c5)c(Cl)c4)c3c2)cc1CCO | 8.44 | 6.17
Fc1cccc(COc2ccc(Nc3ncnc4ccc(-c5cc(CNCCN6CCOCC6)c[nH]5)cc34)cc2Cl)c1 | 8.10 | 6.62
CN1CCN(CC(O)Cn2ccc(-c3ccc4ncnc(Nc5ccc(OCc6cccc(F)c6)c(Cl)c5)c4c3)c2)CC1 (stereo unspecified) | 7.44 | 7.08
CC(=O)NC1CCN(C(=O)Cn2ccc(-c3ccc4ncnc(Nc5ccc(OCc6cccc(F)c6)c(Cl)c5)c4c3)c2)CC1 | 6.99 | 6.02
O=S1(=O)CCC(O)(CNCc2cc(-c3ccc4ncnc(Nc5ccc6c(cnn6Cc6cccc(F)c6)c5)c4c3)c[nH]2)CC1 | 8.22 | 5.54
CS(=O)(=O)CCNCc1cccn1-c1ccc2ncnc(Nc3ccc(OCc4cccc(F)c4)c(Cl)c3)c2c1 | 7.92 | 6.57
OCCn1ccc(-c2ccc3ncnc(Nc4ccc(OCc5cccc(F)c5)c(Cl)c4)c3c2)c1 | 7.28 | 7.40
CN(C)[C@@H]1CCN(C(=O)Cn2ccc(-c3ccc4ncnc(Nc5ccc(OCc6cccc(F)c6)c(Cl)c5)c4c3)c2)C1 | 6.88 | 5.59
OC(CN1CCN(Cc2cccnc2)CC1)Cn1ccc(-c2ccc3ncnc(Nc4ccc5c(cnn5Cc5cccc(F)c5)c4)c3c2)c1 (stereo unspecified) | 6.55 | 5.89
